Measured values published in ChEMBL document CHEMBL1146925 (Bioorg Med Chem Lett, 2006).

How the values were obtained:
D(3) dopamine receptor = D(3) dopamine receptor (Homo sapiens, UniProt P35462); test: Binding affinity to cloned human dopamine D3 receptor
D(2) dopamine receptor = D(2) dopamine receptor (Homo sapiens, UniProt P14416); test: Binding affinity to cloned human dopamine D2 receptor
[1] = Oral bioavailability in rat at 2 mg/kg, iv and 10 mg/kg, po; assay type: ADME, organism-based; details: in vivo
[2] = Permeability across Caco-2 cell membrane at pH 7.2; assay type: ADME, cell-based; details: human, Caco-2, pH 7.2; read-out: permeability
[3] = Brain to plasma ratio in rat at 2 mg/kg, iv and 10 mg/kg, po
Canis familiaris = species: Canis familiaris; test: Metabolic stability in dog liver microsomes; assay type: ADME, Canis lupus familiaris
Liver microsomes [4] = test: Metabolic stability in human liver microsomes; assay type: ADME, Microsome
Liver microsomes [5] = test: Metabolic stability in rat liver microsomes; assay type: ADME, Microsome

Sequence of D(2) dopamine receptor (P14416 whole entry): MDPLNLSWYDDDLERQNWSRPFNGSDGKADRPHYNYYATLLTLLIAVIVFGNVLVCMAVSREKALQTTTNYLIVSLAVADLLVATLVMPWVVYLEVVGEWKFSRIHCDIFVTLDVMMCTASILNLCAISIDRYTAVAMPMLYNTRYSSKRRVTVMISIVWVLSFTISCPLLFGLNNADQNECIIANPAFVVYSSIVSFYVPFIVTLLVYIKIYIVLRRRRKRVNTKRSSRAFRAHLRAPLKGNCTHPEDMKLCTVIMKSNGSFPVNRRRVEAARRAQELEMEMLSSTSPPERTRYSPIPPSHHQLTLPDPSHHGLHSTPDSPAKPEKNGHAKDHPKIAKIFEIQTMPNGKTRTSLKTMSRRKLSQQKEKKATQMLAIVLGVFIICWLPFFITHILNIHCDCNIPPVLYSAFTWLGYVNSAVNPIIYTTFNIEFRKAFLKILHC
Sequence of D(3) dopamine receptor (P35462 whole entry): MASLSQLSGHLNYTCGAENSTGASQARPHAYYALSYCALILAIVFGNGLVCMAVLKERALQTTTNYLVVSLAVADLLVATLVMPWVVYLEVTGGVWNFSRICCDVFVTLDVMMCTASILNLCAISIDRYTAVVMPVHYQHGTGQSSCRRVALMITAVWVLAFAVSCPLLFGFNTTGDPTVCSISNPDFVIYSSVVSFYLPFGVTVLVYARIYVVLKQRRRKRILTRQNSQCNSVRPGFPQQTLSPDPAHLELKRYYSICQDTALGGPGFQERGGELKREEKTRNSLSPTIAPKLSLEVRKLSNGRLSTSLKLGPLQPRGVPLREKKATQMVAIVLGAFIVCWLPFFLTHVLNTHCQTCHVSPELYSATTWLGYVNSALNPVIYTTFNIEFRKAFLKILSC

Row | Ki (D(3) dopamine receptor) | Ki (D(2) dopamine receptor) | Compound | also measured
1 | 1.1 nM | 25.5 nM | CC(C)(C)c1nc(N2CCN(CCCCn3ccc(O)cc3=O)CC2)cc(C(F)(F)F)n1 | 
2 | 0.9 nM | 17.3 nM | CCN(CC)C(=O)NCCCCN1CCN(c2cc(C(F)(F)F)nc(C(C)(C)C)n2)CC1 | 
3 |  | 171 nM | Cc1cccn(CCCCN2CCN(c3cc(C(F)(F)F)nc(C(C)(C)C)n3)CC2)c1=O | 
4 | 12.1 nM | 195 nM | Cc1cccc(=O)n1CCCCN1CCN(c2cc(C(F)(F)F)nc(C(C)(C)C)n2)CC1 | 
5 | 32.2 nM | 128 nM | CC(C)(C)c1nc(N2CCN(CCCCn3cc(Cl)ccc3=O)CC2)cc(C(F)(F)F)n1 | 
6 | 4 nM | 65.8 nM | CC(C)(C)NC(=O)NCCCCN1CCN(c2cc(C(F)(F)F)nc(C(C)(C)C)n2)CC1 | 
7 | 35.7 nM | 399 nM | CC(C)(C)c1nc(N2CCN(CCCCn3cc(C(F)(F)F)ccc3=O)CC2)cc(C(F)(F)F)n1 | 
8 | 11.4 nM | 231 nM | CC(C)(C)c1nc(N2CCN(CCCCn3ccc(C(F)(F)F)cc3=O)CC2)cc(C(F)(F)F)n1 | 
9 |  | 936 nM | CC(C)(C)c1nc(N2CCN(CCCCn3ccc(C(F)(F)F)nc3=O)CC2)cc(C(F)(F)F)n1 | 
10 | 9.3 nM | 409 nM | CC(C)(C)c1nc(N2CCN(CCCCn3cccc(C(F)(F)F)c3=O)CC2)cc(C(F)(F)F)n1 | 
11 |  | 527 nM | CC(C)(C)c1nc(N2CCN(CCCCn3ccc(-c4ccccc4)cc3=O)CC2)cc(C(F)(F)F)n1 | 
12 | 8.3 nM | 212 nM | CCN(Cc1ccccc1)C(=O)NCCCCN1CCN(c2cc(C(F)(F)F)nc(C(C)(C)C)n2)CC1 | 
13 | 7.2 nM | 234 nM | CC(C)(C)c1nc(N2CCN(CCCCNC(=O)NCCc3ccccc3)CC2)cc(C(F)(F)F)n1 | 
14 |  | 168 nM | COc1cccn(CCCCN2CCN(c3cc(C(F)(F)F)nc(C(C)(C)C)n3)CC2)c1=O | 
15 | 5.5 nM | 91.3 nM | CC(C)(C)CNC(=O)NCCCCN1CCN(c2cc(C(F)(F)F)nc(C(C)(C)C)n2)CC1 | 

Row | Compound | Ki (D(3) dopamine receptor) | Ki (D(2) dopamine receptor) | also measured
16 | CC(C)(C)c1nc(N2CCN(CCCCNC(=O)NCC3CCCCC3)CC2)cc(C(F)(F)F)n1 | 6.7 nM | 159 nM | 
17 | CC(C)(C)c1nc(N2CCN(CCCCNC(=O)Nc3ccccc3)CC2)cc(C(F)(F)F)n1 | 3.2 nM | 59.1 nM | 
18 | CC(C)(C)c1nc(N2CCN(CCCCNC(=O)CCc3ccccc3)CC2)cc(C(F)(F)F)n1 | 1.6 nM | 244 nM | bioavailability [1]: < 10%
19 | Cc1ccn(CCCCN2CCN(c3cc(C(F)(F)F)nc(C(C)(C)C)n3)CC2)c(=O)c1 |  | 62.6 nM | Papp [2]: 5 ×10⁻⁶ cm/s; Kp [3]: 3.7; bioavailability [1]: 37%; Stability (Canis familiaris): 59%; Stability (Liver microsomes [4]): > 97%; Stability (Liver microsomes [5]): 74%
20 | CC(C)(C)c1nc(N2CCN(CCCCNC(=O)NCc3ccccc3)CC2)cc(C(F)(F)F)n1 | 2.7 nM | 137 nM | 
21 | CC(C)(C)c1nc(N2CCN(CCCCCC(=O)NCc3ccccc3)CC2)cc(C(F)(F)F)n1 | 6.2 nM | 174 nM | 
